{"source": "patent US20140349924A1", "about": "(Novo Nordisk A/S, priority 2007, published 2014)", "key": {"[1]": {"conditions": "freeze dried from aqueous solutions with pH moved below the isoelectric point; cited from earlier work"}, "[2]": {"test": "freshly excised rat gut sacs (small intestine) incubated in culture medium pH 7.4", "conditions": "37° C, up to 2 h"}, "[3]": {"conditions": "293.2 Kelvin; static electric fields or relatively low frequencies; cited from earlier work"}}, "data": [{"molecule": "lysozyme: lysozyme lyophilized from aqueous solution, literature example (Klibanov et al)", "values": [{"measurement": "Solubility in 1,5 pentanediol", "setting": "[1]", "value": "markedly increased"}]}, {"molecule": "Asp^B28 human insulin", "values": [{"measurement": "fragment found", "setting": "[2]", "value": "degradation product (peak ˜5218), 2 h"}]}, {"molecule": "CO", "note": "[Methanol]", "values": [{"measurement": "Dielectricity constant, ε*", "setting": "[3]", "value": 33.0}]}]}
